Source: US20100152188A1, “Novel Heterocyclic Compounds” (priority 2005, published 2010)

How the values were obtained:
[1] = test system: MDAMB-231/U 251; test: Anti-cancer screen (MTT), MDAMB-231/U 251; type: cell-based; details: for CC50: 48 h, read-out: MDAMB-231/U 251 LC50; for GI50 / IC (TGI): 48 hours with compound, MTT, tested at 0.01-100 µM
Method in brief: (§1)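 5000 cells/well, DMEM + 10% FBS, 24 h attach; cpd 0.01–100 µM ×5 conc, triplicate, 48 h, 37 °C/5% CO2; MTT 3 h, DMSO solubilisation, A570; %growth vs control and T0 → GI50/TGI/LC50.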

[2] = test system: NCIH460, HCT116, MDAMB-231/U 251; test: Anti-cancer screen, mean GI50 over the cell lines; type: cell-based; details: in µM
Method in brief: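 HCT116, NCIH460 and U251 cells (5000/well) were seeded for 24 h, then exposed in triplicate to 0.01, 0.1, 1, 10 and 100 µM final compound for 48 h. Viability was read by MTT (3 h, absorbance 570 nm), and percent growth was calculated against untreated controls and a T0 plate read at compound addition.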

[3] = test system: HDAC; test: HDAC inhibition; type: biochemical; details: for HDAC Inhibition 1 μM: compound at 1 μM; for HDAC Inhibition 10 μM: compound at 10 μM
[4] = test system: NCIH460; test: Anti-cancer screen (MTT), NCIH460; type: cell-based; details: Homo sapiens, NCI-H460, 48 hours with compound, tested at 0.01-100 µM
Method in brief: as §1

[5] = test system: HCT116; test: Anti-cancer screen (MTT), HCT116; type: cell-based; details: Homo sapiens, HCT-116, 48 hours with compound, tested at 0.01-100 µM
Method in brief: as §1

| SMILES | CC50 [1] | GI50 [1] | IC (TGI) [1] | Mean GI50 [2] | HDAC Inhibition 1 μM [3] | HDAC Inhibition 10 μM [3] | GI50 [4] | IC (TGI) [4] | LC50 [4] | GI50 [5] | IC (TGI) [5] | LC50 (concentration giving 50% net cell kill relative to T0) [5] | IC50 [3] |
| --- | --- | --- | --- | --- | --- | --- | --- | --- | --- | --- | --- | --- | --- |
| O=C(NCc1ccc(C(=O)N2CCN(Cc3ccc4c(c3)OCO4)CC2)cc1)OCc1nccs1 [Example 57, 1,3-Thiazol-2-ylmethyl(4-{[4-(1,3-benzodioxol-5-ylmethyl)piperazin-1-yl]carbonyl}benzyl)carbamate] | > 100 µM | 0.4 µM | 0.9 µM | 2.6 | −1.94 | −1 | 0.4 µM | 0.9 µM | > 100 µM | 7 µM | > 100 µM | > 100 µM |  |
| O=C(NCc1ccc(C(=O)NO)cc1)OCc1ccsc1 [Example 27, 3-Thienylmethyl{4-[(hydroxyamino)carbonyl]benzyl}carbamate] | > 100 µM | > 100 µM | > 100 µM | 24.9 | 67.65 | 81.85 | 34 µM | 64 µM | 100 µM | 7 µM | 21 µM | 72 µM | 0.58 µM |
| O=C(NCc1ccc(C(=O)Nc2nnc(C3CC3)s2)cc1)OCc1c(F)cc(F)cc1F [Example 63, 2,4,6-Trifluorobenzyl(4-{[(5-cyclopropyl-1,3,4-thiadiazol-2-yl)amino]carbonyl}benzyl)carbamate] | > 100 µM | 0.5 µM | 5 µM | 5.52 |  | 0.17 | 0.05 µM | 6 µM | > 100 µM | 16 µM | > 100 µM | > 100 µM |  |
| CC(=O)ONC(=O)c1ccc(CNC(=O)OCc2nccs2)cc1 [Example 83, 1,3-thiazol-2-ylmethyl(4-{[(acetyloxy)amino]carbonyl}benzyl)carbamate] | > 100 µM | 9 µM | 66 µM | 16.33 | 22.38 | 63.89 | 30 µM | 60 µM | 90 µM | 10 µM | 56 µM | 84 µM |  |
| CN(O)C(=O)c1ccc(CNC(=O)OCc2cccs2)cc1 [Example 46, 2-Thienylmethyl(4-{[hydroxy(methyl)amino]carbonyl}benzyl)carbamate] | > 100 µM | 40 µM | 90 µM | 66 | −4.01 | −2.70 | 70 µM | > 100 µM | > 100 µM | 88 µM | > 100 µM | > 100 µM |  |
| O=C(CCCCCNC(=O)c1ccc(CNC(=O)OCc2cccs2)cc1)NO [Example 102, 2-Thienylmethyl[4-({[6-(hydroxyamino)-6-oxohexyl]amino}carbonyl)benzyl]carbamate] | 60 µM | 4.8 µM | 9.5 µM | 4.9 | 79.08 | 85.52 | 5 µM | 9.5 µM | 100 µM | 4.8 µM | 10 µM | > 100 µM | 0.25 µM |
| O=C(NCc1ccc(C(=O)N2CCN(Cc3ccc4c(c3)OCO4)CC2)cc1)OCc1cccs1 [Example 52, 2-Thienylmethyl(4-{[4-(1,3-benzodioxol-5-ylmethyl)piperazin-1-yl]carbonyl}benzyl)carbamate] | > 100 µM | 1.3 µM | > 100 µM | 0.6 | 2.2 | 4.1 | 0.04 µM | 0.5 µM | > 100 µM | 0.4 µM | 5.8 µM | > 100 µM |  |
| O=C(Cc1csc(NC(=O)OCc2cccnc2)n1)NC1CCN(Cc2ccccc2)CC1 [Example 17, Pyridin-3-ylmethyl(4-{2-[(1-benzylpiperidin-4-yl)amino]-2-oxoethyl}-1,3-thiazol-2-yl)carbamate] | > 100 µM | 2.5 µM | 50 µM | 54.8 |  | 3.61 | 80 µM | > 100 µM | > 100 µM | 82 µM | > 100 µM | > 100 µM |  |
